# Molecular target: T1, TAAR1 (Mus musculus, UniProt Q923Y8)
# T1 construct: expressed in transfected cells; host or cells: HEK293 (ATCC # CRL-1573), stably transfected with pIRESneo2 expression plasmid; membranes prepared
# Experiment: Radioligand binding assay on membranes of HEK293 cells stably expressing TAAR1
# Settings: mouse TAAR1; radioligand [3H]-rac-2-(1,2,3,4-tetrahydro-1-naphthyl)-2-imidazoline at 60 nM; 4° C., 30 min
# Procedure: Construction of TAAR Expression Plasmids and Stably Transfected Cell Lines
# For the construction of expression plasmids the coding sequences of human, rat and mouse TAAR 1 were amplified from genomic DNA essentially as described by Lindemann et al.. The Expand High Fidelity PCR System (Roche Diagnostics) was used with 1.5 mM Mg^2+ and purified PCR products were cloned into pCR2.1-TOPO cloning vector (Invitrogen) following the instructions of the manufacturer. PCR products were subcloned into the pIRESneo2 vector (BD Clontech, Palo Alto, Calif.), and expression vectors were sequence verified before introduction in cell lines.
# HEK293 cells (ATCC # CRL-1573) were cultured essentially as described Lindemann et al. (2005). For the generation of stably transfected cell lines HEK293 cells were transfected with the pIRESneo2 expression plasmids containing the TAAR coding sequences (described above) with Lipofectamine 2000 (Invitrogen) according to the instructions of the manufacturer, and 24 hrs post transfection the culture medium was supplemented with 1 mg/ml G418 (Sigma, Buchs, Switzerland). After a culture period of about 10 d clones were isolated, expanded and tested for responsiveness to trace amines (all compounds purchased from Sigma) with the cAMP Biotrak Enzyme immunoassay (EIA) System (Amersham) following the non-acetylation EIA procedure provided by the manufacturer.
# Membrane Preparation and Radioligand Binding
# Cells at confluence were rinsed with ice-cold phosphate buffered saline without Ca^2+ and Mg^2+ containing 10 mM EDTA and pelleted by centrifugation at 1000 rpm for 5 min at 4° C. The pellet was then washed twice with ice-cold phosphate buffered saline and cell pellet was frozen immediately by immersion in liquid nitrogen and stored until use at −80° C. Cell pellet was then suspended in 20 ml HEPES-NaOH (20 mM), pH 7.4 containing 10 mM EDTA, and homogenized with a Polytron (PT 3000, Kinematica) at 10,000 rpm for 10 s. The homogenate was centrifuged at 48,000×g for 30 min at 4° C. and the pellet resuspended in 20 ml HEPES-NaOH (20 mM), pH 7.4 containing 0.1 mM EDTA (buffer A), and homogenized with a Polytron at 10,000 rpm for 10 s. The homogenate was then centrifuged at 48,000×g for 30 min at 4° C. and the pellet resuspended in 20 ml buffer A, and homogenized with a Polytron at 10,000 rpm for 10 s. Protein concentration was determined by the method of Pierce (Rockford, Ill.). The homogenate was then centrifuged at 48,000×g for 10 min at 4° C., resuspended in HEPES-NaOH (20 mM), pH 7.0 including MgCl2 (10 mM) and […] homogenized with a Polytron at 10,000 rpm for 10 s.
# Binding assay was performed at 4° C. in a final volume of 1 ml, and with an incubation time of 30 min. The radioligand [^3H]-rac-2-(1,2,3,4-tetrahydro-1-naphthyl)-2-imidazoline was used at a concentration equal to the calculated Kd value of 60 nM to give a bound at around 0.1% of the total added radioligand concentration, and a specific binding which represented approximately 70-80% of the total binding. Non-specific binding was defined as the amount of [^3H]-rac-2-(1,2,3,4-tetrahydro-1-naphthyl)-2-imidazoline bound in the presence of the appropriate unlabelled ligand (10 μM). Competing ligands were tested in a wide range of concentrations (10 pM-30 μM). […] Each experiment was performed in duplicate. All incubations were terminated by rapid filtration through UniFilter-96 plates (Packard Instrument Company) and glass filter GF/C, pre-soaked for at least 2 h in polyethylenimine 0.3%, and using a Filtermate 96 Cell Harvester (Packard Instrument Company). The tubes and filters were then washed 3 times with 1 ml aliquots of cold buffer B. Filters were not dried and soaked in Ultima gold (45 μl/well, Packard Instrument Company) and bound radioactivity was counted by a TopCount Microplate Scintillation Counter (Packard Instrument Company).
# T1 sequence (Q923Y8 whole entry): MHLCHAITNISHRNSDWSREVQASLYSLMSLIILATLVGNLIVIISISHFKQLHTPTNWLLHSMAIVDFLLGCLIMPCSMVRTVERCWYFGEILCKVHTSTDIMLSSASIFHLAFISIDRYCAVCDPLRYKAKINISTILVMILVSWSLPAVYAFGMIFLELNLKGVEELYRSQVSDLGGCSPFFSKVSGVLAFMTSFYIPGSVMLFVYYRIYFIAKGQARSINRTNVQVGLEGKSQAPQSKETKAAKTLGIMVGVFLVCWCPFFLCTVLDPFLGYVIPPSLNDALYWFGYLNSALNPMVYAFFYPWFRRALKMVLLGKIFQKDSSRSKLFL
row,SMILES,Ki
1,"Cc1c(O)ccc(OCC2=NCCN2)c1C [Example 24, 4-(4,5-Dihydro-1H-imidazol-2-ylmethoxy)-2,3-dimethyl-phenol]",0.093 µM
2,"FC(F)(F)c1cccc(OCC2=NCCN2)c1 [Example K17, 2-(3-Trifluoromethyl-phenoxymethyl)-4,5-dihydro-1H-imidazole]",0.0913 µM
3,"c1cc2ccc(OCC3=NCCN3)cc2o1 [Example 17, 2-(Benzofuran-6-yloxymethyl)-4,5-dihydro-1H-imidazole]",0.0372 µM
4,"Clc1cccc(SCC2=NCCN2)c1Cl [Example 31, 2-(2,3-Dichloro-phenylsulfanylmethyl)-4,5-dihydro-1H-imidazole]",0.0075 µM
5,"Fc1cccc(OCC2=NCCN2)c1F [Example 21, 2-(2,3-Difluoro-phenoxymethyl)-4,5-dihydro-1H-imidazole]",0.0341 µM
6,"c1ccc(CCCc2ccc(OCC3=NCCN3)cc2)cc1 [Example 15, 2-[4-(3-Phenyl-propyl)-phenoxymethyl]-4,5-dihydro-1H-imidazole]",0.0441 µM
7,"c1ccc(C2CC2)c(OCC2=NCCN2)c1 [Example K20, 2-(2-Cyclopropyl-phenoxymethyl)-4,5-dihydro-1H-imidazole]",0.0325 µM
8,"CN(CC1=NCCN1)c1cccc(Cl)c1 [Example 3, (3-Chloro-phenyl)-(4,5-dihydro-1H-imidazol-2-ylmethyl)-methyl-amine]",0.0084 µM
9,"Clc1cccc(OCC2=NCCN2)c1Cl [Example K12, 2-(2,3-Dichloro-phenoxymethyl)-4,5-dihydro-1H-imidazole]",0.0063 µM
10,"FC(F)(F)c1cccc(OCC2=NCCN2)c1Cl [Example 20, 2-(2-Chloro-3-trifluoromethyl-phenoxymethyl)-4,5-dihydro-1H-imidazole]",0.0016 µM
11,"Fc1cc(NCC2=NCCN2)ccc1Cl [Example 2, (4-Chloro-3-fluoro-phenyl)-(4,5-dihydro-1H-imidazol-2-ylmethyl)-amine]",0.0011 µM
12,"COc1ccc(Cc2ccc(NCC3=NCCN3)cc2)cc1 [Example 8, (4,5-Dihydro-1H-imidazol-2-ylmethyl)-[4-(4-methoxy-benzyl)-phenyl]-amine]",0.0443 µM
13,"c1ccc(Cc2cccc(OCC3=NCCN3)c2)cc1 [Example 14, 2-(3-Benzyl-phenoxymethyl)-4,5-dihydro-1H-imidazole]",0.0054 µM
14,"Clc1ccccc1OCC1=NCCN1 [Example K10, 2-(2-Chloro-phenoxymethyl)-4,5-dihydro-1H-imidazole]",0.064 µM
15,"CC(C)Oc1ccc(C(=O)CCc2ccc(OC(C)C3=NCCN3)cc2)cc1 (stereo not drawn) [Example 12, 3-{4-[1-(4,5-Dihydro-1H-imidazol-2-yl)-ethoxy]-phenyl}-1-(4-isopropoxy-phenyl)-propan-1-one]",0.0158 µM

# Other lines, results leading:
row,Ki,SMILES
1,0.044 µM,"Cc1ccc(NNC2=NCCN2)cc1C [Example 35, N-(4,5-Dihydro-1H-imidazol-2-yl)-N′-(3,4-dimethyl-phenyl)-hydrazine]"
2,0.0432 µM,"COc1ccccc1N(C)CC1=NCCN1 [Example 9, (4,5-Dihydro-1H-imidazol-2-ylmethyl)-(2-methoxy-phenyl)-methyl-amine]"
3,0.0329 µM,"Clc1ccc(OCC2=NCCN2)cc1Cl [Example 27, 2-(3,4-Dichloro-phenoxymethyl)-4,5-dihydro-1H-imidazole]"
4,0.0262 µM,"CC(Oc1c(Cl)cccc1Cl)C1=NCCN1 (stereo not drawn) [Example K21, 2-[1-(2,6-Dichloro-phenoxy)-ethyl]-4,5-dihydro-1H-imidazole]"
5,0.025 µM,"CC(C)Oc1ccc(OCc2ccc(OCC3=NCCN3)cc2)cc1 [Example 13, 2-[4-(4-Isopropoxy-phenoxymethyl)-phenoxymethyl]-4,5-dihydro-1H-imidazole]"
6,0.023 µM,"Clc1ccc(NCC2=NCCN2)cc1 [Example K1, (4-Chloro-phenyl)-(4,5-dihydro-1H-imidazol-2-ylmethyl)-amine]"
7,0.007 µM,"Clc1cccc(NCC2=NCCN2)c1 [Example K2, (3-Chloro-phenyl)-(4,5-dihydro-1H-imidazol-2-ylmethyl)-amine]"
8,0.0059 µM,"CN(CC1=NCCN1)c1ccc(Cl)c(Cl)c1 [Example 4, (3,4-Dichloro-phenyl)-(4,5-dihydro-1H-imidazol-2-ylmethyl)-methyl-amine]"
9,0.0057 µM,"Cc1c(Cl)cccc1NNC1=NCCN1 [Example K25, N-(3-Chloro-2-methyl-phenyl)-N′-(4,5-dihydro-1H-imidazol-2-yl)-hydrazine]"
10,0.0028 µM,"Cc1c(NCC2=NCCN2)ccc2occc12 [Example 7, (4,5-Dihydro-1H-imidazol-2-ylmethyl)-(4-methyl-benzofuran-5-yl)-amine]"
11,0.0022 µM,"Clc1cc(NCC2=NCCN2)ccc1Br [Example 1, (4-Bromo-3-chloro-phenyl)-(4,5-dihydro-1H-imidazol-2-ylmethyl)-amine]"

# Same assay, conditions: radioligand of the binding assay; TAAR1 species not stated at this place; read-out: calculated Kd value of the radioligand
row,SMILES,Kd
1,"c1ccc2c(c1)CCCC2C1=NCCN1 (racemic) [[^3H]-rac-2-(1,2,3,4-tetrahydro-1-naphthyl)-2-imidazoline, reference compound]",60 nM
